Experimental data published in ChEMBL document CHEMBL6087433, “Discovery of ART0380, a Potent and Selective ATR Kinase Inhibitor Undergoing Phase 2 Clinical Studies for the Treatment of Advanced or Metastatic Solid Cancers” (J Med Chem, 2024).

How the values were obtained:
[1] = target: T1, Serine/threonine-protein kinase mTOR (Homo sapiens, UniProt P42345)
[2] = in vitro; conditions: human, human liver microsomes
[3] = target: T1, Serine/threonine-protein kinase mTOR; remark: listed apart in the source
[4] = target: CYP3A4 (Homo sapiens, UniProt P08684); test: in vitro; conditions: human liver microsomes, probe midazolam
[5] = target: Serine/threonine-protein kinase ATR (Homo sapiens, UniProt Q13535)
Serine/threonine-protein kinase ATR, sequence (Q13535 whole entry): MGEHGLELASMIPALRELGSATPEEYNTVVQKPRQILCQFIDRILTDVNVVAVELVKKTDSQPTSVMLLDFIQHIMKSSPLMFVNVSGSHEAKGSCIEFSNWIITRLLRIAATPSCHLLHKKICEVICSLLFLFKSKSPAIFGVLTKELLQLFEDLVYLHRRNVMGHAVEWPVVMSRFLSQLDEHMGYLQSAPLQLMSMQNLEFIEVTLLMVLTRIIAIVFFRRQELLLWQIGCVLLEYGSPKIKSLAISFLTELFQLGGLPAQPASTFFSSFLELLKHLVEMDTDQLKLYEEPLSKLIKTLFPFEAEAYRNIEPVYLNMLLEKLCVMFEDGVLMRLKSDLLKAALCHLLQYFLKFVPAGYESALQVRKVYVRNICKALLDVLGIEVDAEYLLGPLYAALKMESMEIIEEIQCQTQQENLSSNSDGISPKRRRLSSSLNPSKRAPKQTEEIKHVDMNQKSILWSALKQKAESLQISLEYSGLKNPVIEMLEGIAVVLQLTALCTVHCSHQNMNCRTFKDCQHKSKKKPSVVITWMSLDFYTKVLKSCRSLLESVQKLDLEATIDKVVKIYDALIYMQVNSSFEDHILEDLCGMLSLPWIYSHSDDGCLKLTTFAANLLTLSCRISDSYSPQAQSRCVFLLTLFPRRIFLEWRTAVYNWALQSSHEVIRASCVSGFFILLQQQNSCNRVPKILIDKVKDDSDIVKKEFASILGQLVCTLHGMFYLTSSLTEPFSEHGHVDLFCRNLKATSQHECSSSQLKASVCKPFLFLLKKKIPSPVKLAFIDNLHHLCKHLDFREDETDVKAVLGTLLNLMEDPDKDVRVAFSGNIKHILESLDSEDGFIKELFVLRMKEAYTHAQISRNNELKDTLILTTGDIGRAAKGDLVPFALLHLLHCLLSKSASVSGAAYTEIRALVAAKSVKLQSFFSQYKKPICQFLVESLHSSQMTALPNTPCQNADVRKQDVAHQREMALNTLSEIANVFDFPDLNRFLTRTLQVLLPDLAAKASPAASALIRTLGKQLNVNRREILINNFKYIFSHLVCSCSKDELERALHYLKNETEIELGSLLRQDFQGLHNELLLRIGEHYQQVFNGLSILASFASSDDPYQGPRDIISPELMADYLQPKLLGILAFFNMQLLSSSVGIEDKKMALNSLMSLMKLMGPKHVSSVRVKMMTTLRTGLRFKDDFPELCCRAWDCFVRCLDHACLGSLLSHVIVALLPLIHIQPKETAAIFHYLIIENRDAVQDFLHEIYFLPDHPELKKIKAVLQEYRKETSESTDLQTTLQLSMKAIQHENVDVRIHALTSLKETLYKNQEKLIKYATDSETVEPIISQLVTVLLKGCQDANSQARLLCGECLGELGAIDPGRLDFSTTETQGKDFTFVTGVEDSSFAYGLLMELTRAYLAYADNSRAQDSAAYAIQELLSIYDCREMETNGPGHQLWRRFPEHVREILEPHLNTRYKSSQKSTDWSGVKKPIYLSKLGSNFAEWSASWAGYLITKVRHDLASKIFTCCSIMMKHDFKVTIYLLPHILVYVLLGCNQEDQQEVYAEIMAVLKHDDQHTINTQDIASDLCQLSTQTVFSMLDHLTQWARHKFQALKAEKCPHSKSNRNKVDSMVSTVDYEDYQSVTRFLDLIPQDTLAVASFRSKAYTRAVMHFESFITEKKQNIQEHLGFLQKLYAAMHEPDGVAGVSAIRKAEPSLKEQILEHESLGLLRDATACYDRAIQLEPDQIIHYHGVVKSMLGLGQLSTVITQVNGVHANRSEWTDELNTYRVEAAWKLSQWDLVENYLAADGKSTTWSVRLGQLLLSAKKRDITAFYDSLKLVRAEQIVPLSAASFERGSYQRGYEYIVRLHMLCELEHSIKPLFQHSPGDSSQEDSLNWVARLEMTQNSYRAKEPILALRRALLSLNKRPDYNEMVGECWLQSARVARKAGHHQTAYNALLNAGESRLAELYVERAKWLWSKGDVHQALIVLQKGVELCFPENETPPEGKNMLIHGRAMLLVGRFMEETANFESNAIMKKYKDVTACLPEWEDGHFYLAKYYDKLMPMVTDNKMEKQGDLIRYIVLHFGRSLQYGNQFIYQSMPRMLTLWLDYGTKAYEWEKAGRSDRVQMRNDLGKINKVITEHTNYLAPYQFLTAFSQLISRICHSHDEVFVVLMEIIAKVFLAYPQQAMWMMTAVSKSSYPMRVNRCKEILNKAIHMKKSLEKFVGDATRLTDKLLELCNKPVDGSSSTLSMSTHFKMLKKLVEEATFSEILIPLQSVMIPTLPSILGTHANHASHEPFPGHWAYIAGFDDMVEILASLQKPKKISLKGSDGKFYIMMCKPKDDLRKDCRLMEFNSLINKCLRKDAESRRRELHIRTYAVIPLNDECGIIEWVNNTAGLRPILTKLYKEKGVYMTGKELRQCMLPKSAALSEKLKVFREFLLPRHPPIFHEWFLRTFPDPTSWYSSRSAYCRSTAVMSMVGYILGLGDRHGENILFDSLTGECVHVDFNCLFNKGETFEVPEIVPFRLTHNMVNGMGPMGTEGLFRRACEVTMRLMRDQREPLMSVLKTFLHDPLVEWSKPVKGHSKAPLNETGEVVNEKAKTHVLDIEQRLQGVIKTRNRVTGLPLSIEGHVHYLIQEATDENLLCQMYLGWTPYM

CYP3A4, sequence (P08684 whole entry): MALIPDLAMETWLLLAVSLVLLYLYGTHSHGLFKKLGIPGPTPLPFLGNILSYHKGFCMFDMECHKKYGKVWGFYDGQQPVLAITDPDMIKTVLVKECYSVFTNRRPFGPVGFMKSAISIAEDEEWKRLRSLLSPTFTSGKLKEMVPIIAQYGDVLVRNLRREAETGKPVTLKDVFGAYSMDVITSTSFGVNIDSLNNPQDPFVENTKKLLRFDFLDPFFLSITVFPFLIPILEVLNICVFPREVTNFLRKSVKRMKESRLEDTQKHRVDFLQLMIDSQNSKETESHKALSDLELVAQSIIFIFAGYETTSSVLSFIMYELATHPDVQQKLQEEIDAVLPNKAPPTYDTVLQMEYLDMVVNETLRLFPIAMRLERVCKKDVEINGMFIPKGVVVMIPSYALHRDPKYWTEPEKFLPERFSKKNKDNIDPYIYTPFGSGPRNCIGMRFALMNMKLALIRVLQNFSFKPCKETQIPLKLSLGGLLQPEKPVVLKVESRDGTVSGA

IC50 [1]	CLint scaled at 0.75 h, 1 µM [2]	IC50 [3]	inhibition at 10 µM [4]	IC50 [5]	SMILES
> 10000 nM	–	–	–	–	Cc1cc(-c2nc(N=S(C)(C)=O)cc(N3CCOC[C@H]3C)n2)cc(N)n1
7000 nM	7.1 mL/min/kg	866 nM	–	–	COc1cc(-c2nc(N=[S@@](C)(=O)C3CC3)cc(N3CCOC[C@H]3C)n2)cc(N)n1
8500 nM	–	1600 nM	–	–	C[C@@H]1COCCN1c1cc(N=S(C)(C)=O)nc(-c2ccnc3[nH]ccc23)c1
1710 nM	–	1120 nM	–	–	CC[S@@](C)(=O)=Nc1cc(N2CCOC[C@H]2C)nc(-c2ccnc3[nH]ccc23)n1
1660 nM	–	165 nM	–	–	C[C@@H]1COCCN1c1cc(N=[S@@](C)(=O)C2CC2)nc(-c2ccnc3[nH]ccc23)n1
9650 nM	–	2770 nM	–	–	C[C@@H]1COCCN1c1cc(N=[S@](C)(=O)C2CC2)nc(-c2ccnc3[nH]ccc23)c1
2380 nM	–	324 nM	–	–	C[C@@H]1COCCN1c1cc(N=[S@](C)(=O)C2CC2)nc(-c2ccnc3[nH]ccc23)n1
8260 nM	–	2210 nM	–	–	COc1cc(-c2nc(N=S(C)(C)=O)cc(N3CCOC[C@H]3C)n2)cc(N)n1
3340 nM	–	502 nM	56%	–	Cc1cc2c(-c3nc(N=S(C)(C)=O)cc(N4CCOC[C@H]4C)n3)ccnc2[nH]1
2160 nM	–	891 nM	–	–	CC[S@](C)(=O)=Nc1cc(N2CCOC[C@H]2C)nc(-c2ccnc3[nH]ccc23)n1
6360 nM	–	–	–	–	C[C@@H]1COCCN1c1cc(N=S(C)(=O)C2CCOCC2)nc(-c2ccnc3[nH]ccc23)n1 (mixture of isomers)
420 nM	–	81 nM	–	–	C[C@@H]1COCCN1c1cc(N2CCCN(C)S2(=O)=O)nc(-c2ccnc3[nH]ccc23)n1
> 10000 nM	–	–	–	875 nM	C[C@@H]1COCCN1c1cc(N=S(C)(C)=O)nc(-c2ccnc(N)c2)c1
5250 nM	13 mL/min/kg	421 nM	–	–	COc1cc(-c2nc(N=[S@@](C)(=O)C3COC3)cc(N3CCOC[C@H]3C)n2)cc(N)n1
8200 nM	–	1190 nM	–	–	C[C@@H]1COCCN1c1cc(N=[S@@](C)(=O)C2CC2)nc(-c2ccnc3[nH]ccc23)c1
3900 nM	–	274 nM	–	–	C[C@@H]1COCCN1c1cc(C2CCCS2(=O)=O)nc(-c2ccnc3[nH]ccc23)n1 (mixture of isomers)
1300 nM	–	113 nM	–	134 nM	C[C@@H]1COCCN1c1cc(C2CCCN(S(C)(=O)=O)C2)nc(-c2ccnc3[nH]ccc23)n1 (mixture of isomers)
2190 nM	–	307 nM	–	–	C[C@@H]1COCCN1c1cc(N=S(C)(=O)C2COC2)nc(-c2ccnc3[nH]ccc23)n1 (mixture of isomers)
8240 nM	2.4 mL/min/kg	2980 nM	–	–	COc1cc(-c2nc(N=[S@](C)(=O)C3COC3)cc(N3CCOC[C@H]3C)n2)cc(N)n1
15400 nM	–	4780 nM	–	–	C[C@@H]1COCCN1c1cc(N=S(C)(C)=O)nc(-c2ccnc(N)c2)n1
496 nM	–	217 nM	–	–	C[C@@H]1COCCN1c1cc(C2CCN(S(C)(=O)=O)CC2)nc(-c2ccnc3[nH]ccc23)n1
2400 nM	–	419 nM	–	–	C[C@@H]1COCCN1c1cc(N=S(C)(C)=O)nc(-c2ccnc3[nH]ccc23)n1
> 10000 nM	–	–	–	–	C[C@@H]1COCCN1c1cc(-c2ccnc3[nH]ccc23)nc(N=S(C)(C)=O)n1
